One test concerns Micrococcus luteus. The test can be described thus: in vivo activity, M.I.C. on M. luteus (VM1 derivatives alone, without VS1). In kind it is cell-based. Also noted: key: (+) indicates multiplication of bacteria. The settings on record: M. luteus in LBroth, 18 h at 37° C. with shaking. The procedure: The synthesized derivatives of the present invention have been tested for antibacterial activity (in solid and liquid medium), ribosome binding affinity and synergistic activity with virginiamycin S. The tests for biological activity were carried out both in vivo and in vitro. The in vivo tests were carried out using Micrococcus luteus as the test organism with the VM1 derivatives alone (without VS1). Minimum inhibitory concentrations (MIC values) were determined on agar broth plates by standard microbiological procedures, with a range of concentrations of the VM derivatives applied to the plates. The in vitro tests of the VM derivatives were performed together with VS1, and took advantage of the unique fluorescence (F) inherent in VS1. The results are summarized in the following tables, wherein the activities are compared to virginiamycin (VM1). | M. luteus in LBroth, 18 h at 37° C. with shaking. | M. luteus in LBroth, 18 h at 37° C. with shaking.

A further test concerns ribosomes. The test can be described thus: in vitro activity: binding to free ribosomes, VS1 fluorescence with erythromycin displacement. Also noted: key to kobs (symbol): (*) too small to be measured. t/2 is very large. Conditions: together with VS1, fluorescence. The procedure: The in vivo tests were carried out using Micrococcus luteus as the test organism with the VM1 derivatives alone (without VS1). Minimum inhibitory concentrations (MIC values) were determined on agar broth plates by standard microbiological procedures, with a range of concentrations of the VM derivatives applied to the plates. The in vitro tests of the VM derivatives were performed together with VS1, and took advantage of the unique fluorescence (F) inherent in VS1. […] Using spectrofluorometry, an increase in fluorescence can be measured when ribosomes are added to a VS1 solution. Erythromycin is known to bind at the same position on the ribosome (50-S subunit) as VS1, and when it is added to the VS1 /ribosomal mixture, a decrease in fluorescence is seen. If VM1 is added to the VS1 /ribosomal/erythromycin mixture, an increase in fluorescence can be measured. Presumably, a conformational change of the ribosomes occurs upon binding of VM1, which allows VS1 to bind preferentially and releases erythromycin from the ribosomes. The VM1 derivatives would also display this type of behavior if they bind to the ribosomes.

Setting [1] is: in vitro Activity of VM1-Ester Derivatives.
The mark [2] stands for this setting: in vitro Activity of VM1-Carboxylic Acid Derivatives.

With `CC1=C\[C@@H](O)CC(=O)Cc2nc(co2)C(=O)N2CC[C@H](SCCCCC(=O)OCC(Cl)(Cl)Cl)[C@H]2C(=O)O[C@H](C(C)C)[C@H](C)/C=C/C(=O)NC\C=C\1` [Ester c S,R], the “in vivo Activity of VM1-Ester Derivatives, M.I.C. on M. luteus (multiplication of bacteria)” value (“in vivo Activity” for short) in the test with Micrococcus luteus (Concentration 0.0625 μg/mL), in the test with Micrococcus luteus (Concentration 0.125 μg/mL), in the test with Micrococcus luteus (Concentration 0.25 μg/mL), in the test on Micrococcus luteus (Concentration 0.5 μg/mL), in the test on Micrococcus luteus (Concentration 1 μg/mL) and with Micrococcus luteus (Concentration 2 μg/mL) was “+” throughout. The “in vivo Activity” value in the test on Micrococcus luteus (Concentration 4 μg/mL) and in the test on Micrococcus luteus (Concentration 8 μg/mL) was “+” each time. In the test with ribosomes (setting [1]), the “kobs (symbol)” value was “*”.
As for `CC1=C\[C@@H](O)CC(=O)Cc2nc(co2)C(=O)N2CC[C@H](SCC(=O)OCC(Cl)(Cl)Cl)[C@H]2C(=O)O[C@H](C(C)C)[C@H](C)/C=C/C(=O)NC\C=C\1` [Ester a S,R], the “in vivo Activity” value in the test on Micrococcus luteus (Concentration 0.0625 μg/mL), in the test with Micrococcus luteus (Concentration 0.125 μg/mL), in the test on Micrococcus luteus (Concentration 0.25 μg/mL), with Micrococcus luteus (Concentration 0.5 μg/mL), in the test on Micrococcus luteus (Concentration 1 μg/mL) and in the test on Micrococcus luteus (Concentration 2 μg/mL) was “+” each time. Moreover, the “in vivo Activity” value in the test on Micrococcus luteus (Concentration 4 μg/mL), with Micrococcus luteus (Concentration 8 μg/mL) and in the test with Micrococcus luteus (Concentration 16 μg/mL) was “+” in each case. Further, the “kobs (symbol)” value in the test on ribosomes (setting [1]) is “*”.
On to `CC1=C\[C@@H](O)CC(=O)Cc2nc(co2)C(=O)N2CCC=C2C(=O)O[C@H](C(C)C)[C@H](C)/C=C/C(=O)NC\C=C\1` [VM1, virginiamycin M1], for which, in the test on Micrococcus luteus (Concentration 0.0625 μg/mL), the “in vivo Acitivity of VM1-Carboxylic Derivatives, M.I.C. on M. luteus (multiplication of bacteria)” value was “+” and the “in vivo Activity” value is recorded as “+”. In the test with ribosomes (setting [2]), this compound displayed a kobs of 0.068 s⁻¹ and a t/2 of 10.2 s. For the same compound, in the test with ribosomes (setting [1]), the kobs was found to be 0.068 s⁻¹ and the t/2 was 10.2 s.
Consider `CC1=C\[C@@H](O)CC(=O)Cc2nc(co2)C(=O)N2CC[C@@H](SCC(=O)OCC(Cl)(Cl)Cl)[C@@H]2C(=O)O[C@H](C(C)C)[C@H](C)/C=C/C(=O)NC\C=C\1` [Ester a R,S], for which the “in vivo Activity” value in the test with Micrococcus luteus (Concentration 0.0625 μg/mL), in the test with Micrococcus luteus (Concentration 0.125 μg/mL) and in the test on Micrococcus luteus (Concentration 0.25 μg/mL) was “+” each time. This compound also had a kobs in the test with ribosomes (setting [1]) of 0.019 s⁻¹. This compound came in with a t/2 with ribosomes (setting [1]) of 35.6 s.

Values taken from patent US5587475A, “Derivatized virginiamycin M1” (University of Notre Dame, priority 1995, dated 1996).
